Molecular target: TBK1 (Homo sapiens (Human), UniProt Q9UHD2)
Test: TBK1 low ATP kinase assay (in vitro assay 1)
Assay type: biochemical
Settings: in vitro assay 1, read-out: TBK1 low ATP kinase assay IC50

TBK1, sequence (Q9UHD2 whole entry): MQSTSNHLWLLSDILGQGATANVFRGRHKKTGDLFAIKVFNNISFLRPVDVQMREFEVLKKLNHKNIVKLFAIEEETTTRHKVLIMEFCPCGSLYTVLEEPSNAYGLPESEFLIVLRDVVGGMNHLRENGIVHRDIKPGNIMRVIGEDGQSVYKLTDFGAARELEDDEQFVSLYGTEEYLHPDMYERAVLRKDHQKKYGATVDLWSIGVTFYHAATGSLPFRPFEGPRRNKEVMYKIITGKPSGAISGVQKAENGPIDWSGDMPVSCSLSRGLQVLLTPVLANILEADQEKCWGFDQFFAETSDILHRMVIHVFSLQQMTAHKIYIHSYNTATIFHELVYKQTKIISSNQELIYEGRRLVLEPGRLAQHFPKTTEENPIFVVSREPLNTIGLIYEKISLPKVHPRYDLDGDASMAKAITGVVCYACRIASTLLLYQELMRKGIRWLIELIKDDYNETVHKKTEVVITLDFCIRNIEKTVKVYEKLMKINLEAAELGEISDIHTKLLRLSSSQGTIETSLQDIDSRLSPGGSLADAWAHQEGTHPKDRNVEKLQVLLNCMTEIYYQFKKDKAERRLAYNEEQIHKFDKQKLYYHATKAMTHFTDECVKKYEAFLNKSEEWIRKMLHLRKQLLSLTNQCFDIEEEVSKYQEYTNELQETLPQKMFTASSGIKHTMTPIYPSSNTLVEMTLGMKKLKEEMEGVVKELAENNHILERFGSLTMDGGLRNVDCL

CCn1cc(-c2ccc3nc(Nc4cc(CN5CCN(C(=O)C6CC6)CC5)ccn4)[nH]c3c2OCC(C)C)cn1 [Example 52.02, cyclopropyl{4-[(2-{[6-(1-ethyl-1H-pyrazol-4-yl)-7-(2-methylpropoxy)-1H-benzimidazol-2-yl]amino}pyridin-4-yl)methyl]piperazin-1-yl}methanone]
IC50: 36.9 nM

O=C(C1CC1)N1CCN(Cc2ccnc(Nc3nc4ccc(-c5ncnc(NCC6CC6)c5F)cc4[nH]3)c2)CC1 [Example 195.03, cyclopropyl[4-({2-[(6-{6-[(cyclopropylmethyl)amino]-5-fluoropyrimidin-4-yl}-1H-benzimidazol-2-yl)amino]pyridin-4-yl}methyl)piperazin-1-yl]methanone]
IC50: 34.1 nM

Cc1nc(-c2ccc3nc(Nc4cc(CN5CCN(C(=O)CC(F)(F)F)CC5)ccn4)[nH]c3c2)c2ccsc2n1 [Example 104.01, 3,3,3-trifluoro-1-{4-[(2-{[6-(2-methylthieno[2,3-d]pyrimidin-4-yl)-1H-benzimidazol-2-yl]amino}pyridin-4-yl)methyl]piperazin-1-yl}propan-1-one]
IC50: 2600 nM

CC(c1ccnc(Nc2nc3ccc(-c4cc(N(C)CC5CC5)ncn4)cc3[nH]2)c1)N1CCN(C(=O)C2(C(F)(F)F)CC2)CC1 (single isomer, unassigned) [Example 197.04, {4-[(1R or 1S)-1-{2-[(6-{6-[(cyclopropylmethyl)(methyl)amino]pyrimidin-4-yl}-1H-benzimidazol-2-yl)amino]pyridin-4-yl}ethyl]piperazin-1-yl}[1-(trifluoromethyl)cyclopropyl]methanone]
IC50: 6.46 nM

O=C(C1CC1)N1CCN(Cc2ccnc(Nc3nc4ccc(-c5cc(OCC6(C(F)(F)F)CC6)ncn5)cc4[nH]3)c2)CC1 [Example 158.03, cyclopropyl{4-[(2-{[6-(6-{[1-(trifluoromethyl)cyclopropyl]methoxy}pyrimidin-4-yl)-1H-benzimidazol-2-yl]amino}pyridin-4-yl)methyl]piperazin-1-yl}methanone]
IC50: 13 nM

CC(c1ccnc(Nc2nc3ccc(-c4cc(OCC5CC5)ncn4)cc3[nH]2)c1)N1CCN(C(=O)OC(C)(C)C)CC1 (single isomer, unassigned) [Example 85.02, tert-Butyl 4-{(1R or 1S)-1-[2-({6-[6-(cyclopropylmethoxy)pyrimidin-4-yl]-1H-benzimidazol-2-yl}amino)pyridin-4-yl]ethyl}piperazine-1-carboxylate]
IC50: 14 nM

CC(C)(C)OC(=O)N1CCN(Cc2ccnc(Nc3nc4ccc(-c5ccnc(C(F)F)c5)cc4[nH]3)c2)CC1 [Example 139.01, tert-butyl 4-{[2-({6-[2-(difluoromethyl)pyridin-4-yl]-1H-benzimidazol-2-yl}amino)pyridin-4-yl]methyl}piperazine-1-carboxylate]
IC50: 55 nM

CC(c1ccnc(Nc2nc3ccc(-c4cc(C(F)(F)F)ncn4)c(F)c3[nH]2)c1)N1CCN(C(=O)C2CC2)CC1 (single isomer, unassigned) [Example 173.03, cyclopropyl(4-{(1R or 1S)-1-[2-({7-fluoro-6-[6-(trifluoromethyl)pyrimidin-4-yl]-1H-benzimidazol-2-yl}amino)pyridin-4-yl]ethyl}piperazin-1-yl)methanone]
IC50: 50.6 nM

COc1cnccc1-c1ccc2nc(Nc3cc(CN4CCN(C(=O)C(C)(C)O)CC4)ccn3)[nH]c2c1 [Example 04.09, 2-hydroxy-1-{4-[(2-{[6-(3-methoxypyridin-4-yl)-1H-benzimidazol-2-yl]amino}pyridin-4-yl)methyl]piperazin-1-yl}-2-methylpropan-1-one]
IC50: 28.5 nM

Cc1noc(-c2ccc3nc(Nc4cc(CN5CCN(c6ccccc6F)CC5)ccn4)[nH]c3c2)n1 [Example 101.02, N-(4-{[4-(2-fluorophenyl)piperazin-1-yl]methyl}pyridin-2-yl)-6-(3-methyl-1,2,4-oxadiazol-5-yl)-1H-benzimidazol-2-amine]
IC50: 680 nM

Cc1cc(-c2ccc3nc(Nc4cc(C(C)N5CCN(C(=O)OC(C)(C)C)CC5)ccn4)[nH]c3c2Cl)ncn1 (single isomer, unassigned) [Example 98.01, tert-butyl 4-[(1R or 1S)-1-(2-{[7-chloro-6-(6-methylpyrimidin-4-yl)-1H-benzimidazol-2-yl]amino}pyridin-4-yl)ethyl]piperazine-1-carboxylate]
IC50: 100 nM

CCOc1c(-c2cnn(CC)c2)ccc2nc(Nc3cc(CN4CCN(C(=O)CC(F)(F)F)CC4)ccn3)[nH]c12 [Example 53.01, 1-{4-[(2-{[7-ethoxy-6-(1-ethyl-1H-pyrazol-4-yl)-1H-benzimidazol-2-yl]amino}pyridin-4-yl)methyl]piperazin-1-yl}-3,3,3-trifluoropropan-1-one]
IC50: 132 nM

Cc1cc(-c2ccc3nc(Nc4cc(CN5CCN(C(=O)C6CC6)CC5)ccn4)[nH]c3c2)nc(C)n1 [Example 31.02, cyclopropyl{4-[(2-{[6-(2,6-dimethylpyrimidin-4-yl)-1H-benzimidazol-2-yl]amino}pyridin-4-yl)methyl]piperazin-1-yl}methanone]
IC50: 77 nM

COc1cc(-c2ccc3nc(Nc4cc(C(C)N5CCN(C(=O)C6CC6)CC5)ccn4)[nH]c3c2)ncn1 (racemic) [Example 34.02.02, (rac)-cyclopropyl{4-[1-(2-{[6-(6-methoxypyrimidin-4-yl)-1H-benzimidazol-2-yl]amino}pyridin-4-yl)ethyl]piperazin-1-yl}methanone]
IC50: 9.1 nM

O=C(C1CC1)N1CCN(Cc2cc(Nc3nc4ccc(-c5ccncn5)cc4[nH]3)nc(C(F)(F)F)c2)CC1 [Example 23.03.01, cyclopropyl(4-{[2-{[6-(pyrimidin-4-yl)-1H-benzimidazol-2-yl]amino}-6-(trifluoromethyl)pyridin-4-yl]methyl}piperazin-1-yl)methanone]
IC50: 161 nM

COc1cnc(C)cc1-c1ccc2nc(Nc3cc(CN4CCN(C(=O)CC(F)(F)F)CC4)ccn3)[nH]c2c1 [Example 07.02, 3,3,3-trifluoro-1-{4-[(2-{[6-(5-methoxy-2-methylpyridin-4-yl)-1H-benzimidazol-2-yl]amino}pyridin-4-yl)methyl]piperazin-1-yl}propan-1-one]
IC50: 277 nM

COc1c(NCC2CC2)ncnc1-c1ccc2nc(Nc3cc(C(C)N4CCN(C(=O)C5CC5)CC4)ccn3)[nH]c2c1 (single isomer, unassigned) [Example 109.02.02, cyclopropyl{4-[(1R or 1S)-1-{2-[(6-{6-[(cyclopropylmethyl)amino]-5-methoxypyrimidin-4-yl}-1H-benzimidazol-2-yl)amino]pyridin-4-yl}ethyl]piperazin-1-yl}methanone]
IC50: 2 nM

Cc1cc(-c2ccc3nc(Nc4cc(C(C)N5CCN(C(=O)C6CCC6)CC5)ccn4)[nH]c3c2)ncn1 (racemic) [Example 30.02.02, (rac)-cyclobutyl{4-[1-(2-{[6-(6-methylpyrimidin-4-yl)-1H-benzimidazol-2-yl]amino}pyridin-4-yl)ethyl]piperazin-1-yl}methanone]
IC50: 7.86 nM

CC(C)(C)OC(=O)N1CCN(Cc2ccnc(Nc3nc4ccc(-c5cc(OCC6(C(F)(F)F)CC6)ncn5)cc4[nH]3)c2)CC1 [Example 158.01, tert-butyl 4-[(2-{[6-(6-{[1-(trifluoromethyl)cyclopropyl]methoxy}pyrimidin-4-yl)-1H-benzimidazol-2-yl]amino}pyridin-4-yl)methyl]piperazine-1-carboxylate]
IC50: 160 nM
